From PMC11432330, “Novel Drug-like HsrA Inhibitors Exhibit Potent Narrow-Spectrum Antimicrobial Activities against Helicobacter pylori” (International Journal of Molecular Sciences, 2024)
≈ marks a conversion by molar mass, not a printed value.

Legend:
[1] = tested on: H. pylori; assay: MIC across the four H. pylori strains tested (text summaries); type: cell-based, Helicobacter pylori; conditions: Helicobacter pylori; four strains incl. CLR-, MTZ- and LVX-resistant; read-out: MIC against all H. pylori strains tested
Procedure: The antimicrobial activity of the HsrA inhibitors was evaluated by the determination of the minimal inhibitory concentration (MIC) against four different strains of H. pylori: ATCC 700392 (aka 26695), ATCC 43504 (MTZ-resistant reference strain), ATCC 700684 (CLR-resistant reference strain), and Donostia 2 (LVX-resistant clinical isolate). The MICs were determined by the broth microdilution method, as previously described. Briefly, H. pylori strains were grown in blood agar at 37 °C for 72 h under microaerobic conditions. Fresh inoculums adjusted at OD600 = 0.01 [~10^6 colony forming units (CFU) per mL] in BHI broth supplemented with 4% fetal bovine serum (BHI + FBS) were prepared and immediately exposed to final concentrations between 64 and 0.031 mg/L of each compound of interest. The compound solvent (DMSO) as well as conventional antibiotics (MTZ, CLR, LVX) were included as controls. […] Each experiment was performed twice in triplicate. The MIC and MBC values of the selected compounds against C. jejuni ATCC 33560 were determined by using the same method and culture conditions described for the H. pylori strains.

[2] = tested on: E. coli ATCC 25922; assay: MIC/MBC according to EUCAST guidelines; type: cell-based; conditions: Escherichia coli, ATCC25922
Procedure: (§1) The antimicrobial activities of the selected compounds against several Gram-negative and Gran-positive representative species of normal human microbiota were determined according to the EUCAST guidelines. Briefly, standardized inoculums (0.5 McFarland) were freshly prepared from overnight Mueller–Hinton agar plates of reference strains E. coli ATCC 25922, K. pneumonia ATCC 700603, E. faecalis ATCC 29212, S. aureus ATCC 29213, S. epidermidis ATCC 12228, and S. agalactiae ATCC 12386. Next, bacterial suspensions adjusted to 5 × 10^5 CFU/mL in Mueller–Hinton broth were exposed to a range of concentrations from 64 to 0.031 mg/L of the selected compounds. DMSO and conventional antibiotics LVX and AMP were included as controls. […] Experiments were performed twice in triplicate.

[3] = tested on: E. faecalis ATCC 29212; assay: MIC/MBC according to EUCAST guidelines; type: cell-based; conditions: Enterococcus faecalis, ATCC29212
Procedure: as §1

[4] = tested on: S. agalactiae ATCC 12386; assay: MIC/MBC according to EUCAST guidelines; type: cell-based; conditions: Streptococcus agalactiae, ATCC12386
Procedure: as §1

[5] = tested on: S. aureus ATCC 29213; assay: MIC/MBC according to EUCAST guidelines; type: cell-based; conditions: Staphylococcus aureus, ATCC29213
Procedure: as §1

[6] = tested on: S. epidermidis ATCC 12228; assay: MIC/MBC according to EUCAST guidelines; type: cell-based; conditions: Staphylococcus epidermidis, ATCC12228
Procedure: as §1

[7] = tested on: H. pylori ATCC 700392; assay: Checkerboard assay with first-line antibiotics; type: cell-based, Helicobacter pylori
Procedure: Potential synergisms between the selected HsrA inhibitors and first-line antibiotics were evaluated by using checkerboard assays, as previous described. Briefly, the antimicrobials to be tested were twofold serially diluted in BHI + FBS using independent sterile microtiter plates. Then, concentration gradients from two antimicrobials were aseptically mixed at equal volumes in a new microtiter plate, resulting in a matrix of 77 unique combinations of both compounds. Next, freshly prepared inoculum of H. pylori ATCC 700392 adjusted at 2 × 10^6 CFU/mL in BHI+ FBS were added to all wells, and plates were incubated for 72 h at 37 °C under microaerophilic conditions. […] The fractional inhibitory concentration index (FICI) for each antimicrobial combination was calculated as previously described. Values of FICI ≤ 0.5, 0.5 < FICI ≤ 1, 1 < FICI ≤ 4, and FICI > 4 were considered as indicative of synergistic, additive, neutral, or antagonist interactions, respectively.

[8] = Cytotoxicity, PrestoBlue cell viability assay; type: cell-based; conditions: human; HeLa cells, 24 h exposure; read-out: CC50 (50% cytotoxic concentration)
Procedure: (§2) The in vitro toxicity of the selected HsrA inhibitors was determined on HeLa cells by the PrestoBlue^TM assay, as previously described. Briefly, cells were cultured at 37 °C with 5% CO2 in Dulbecco’s modified Eagle’s medium containing 10% fetal bovine serum, 1% L-GlutaMAX^TM solution (Thermo Fisher Scientific), and 1% penicillin/streptomycin. When 80% confluence was achieved, cells were detached, counted, seeded in 96-well microplates at a density of 10,000 cells per well, and allowed to adhere for 24 h. Next, the mammalian cells were exposed to selected compounds at a range of 0.125 to 128 mg/L. After 24 h of exposure, the cell viability was measured with the PrestoBlue^TM cell viability reagent (Thermo Fisher Scientific), according to the manufacturer’s instructions. Experiments were performed twice in triplicate. The 50% cytotoxic concentration (CC50) of each compound was calculated by regression analysis using Microsoft Excel. Therapeutic index (TI) values were calculated as the ratio of the CC50 to the higher MIC observed for each compound [111].

[9] = tested on: HeLa cells; assay: Cytotoxicity, PrestoBlue cell viability assay; type: cell-based; conditions: for TI (CC50/MIC), therapeutic index: CC50 on HeLa / higher MIC observed against H. pylori; for Cytotoxicity at 8 mg/L: HeLa cells, 24 h
Procedure: as §2

[10] = biological target: HsrA (Helicobacter pylori, UniProt O25684); assay: Isothermal titration calorimetry (ITC) with HsrA; type: binding; conditions: ITC, 25 °C; for n (stoichiometry) / Kd: pH 8; for Kd: relative error 15%, read-out: Kd; for ΔG: absolute error 0.1; for ΔH: absolute error 0.4
Procedure: Molecular interactions of the selected ligands with proteins HsrA or CosR were studied by isothermal titration calorimetry (ITC), as previously described. Titrations were assessed in a high-sensitivity MicroCal Auto-iTC200 calorimeter (Malvern Panalytical, Malvern, UK). Experiments were carried out at 25 °C in freshly prepared buffer containing 50 mM Tris-HCl [pH 8], 150 mM NaCl, 10% glycerol, and 1% DMSO. A 20 µM solution of protein was located in the calorimetric cell. Then, a sequence of 19 injections of 2 µL volume each with a 200 µM solution of the corresponding ligand was programmed with a time spacing of 150 s, a stirring speed of 750 rpm, and a reference power of 10 µcal/s in the sample cell. Thermodynamic properties such as binding stoichiometry, dissociation constants, and binding enthalpies were calculated by nonlinear least-squares regression data analysis using Origin 7.0 software.

[11] = in combination with CLR (clarithromycin)
[12] = in combination with LVX (levofloxacin)
[13] = in combination with MTZ (metronidazole)

Chain of HsrA (O25684 entry or part of it): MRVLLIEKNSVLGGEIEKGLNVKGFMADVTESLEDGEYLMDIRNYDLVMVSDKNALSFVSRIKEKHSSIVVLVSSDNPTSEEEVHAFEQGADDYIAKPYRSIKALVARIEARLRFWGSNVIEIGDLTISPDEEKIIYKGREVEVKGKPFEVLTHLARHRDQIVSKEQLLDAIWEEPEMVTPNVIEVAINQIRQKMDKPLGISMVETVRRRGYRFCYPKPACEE

Compound | MIC [1] [µg/mL] | MBC [2] [µg/mL] | MIC [2] [µg/mL] | MBC [3] [µg/mL] | MIC [3] [µg/mL] | MBC [4] [µg/mL] | MIC [4] [µg/mL] | MBC [5] [µg/mL] | MIC [5] [µg/mL] | MBC [6] [µg/mL] | MIC [6] [µg/mL] | FICI [7, 11] | FICantibiotic [7, 11] | FICinhibitor [7, 11] | FICI [7, 12] | FICantibiotic [7, 12] | FICinhibitor [7, 12] | FICI [7, 13] | FICantibiotic [7, 13] | FICinhibitor [7, 13] | further results
N#C/C(=C\C=C\c1ccccc1)c1nc2ccccc2[nH]1 [Ligand XII] | 0.031 to 4 (≈ 0.114 to 14.7 µM) | > 64 | > 64 | > 64 | > 64 | > 64 | > 64 | > 64 | > 64 | > 64 | > 64 | 0.75 | 0.25 | 0.5 | 1 | 0.5 | 0.5 | 0.5 | 0.25 | 0.25 | Interaction [7, 11]: Additive (additive (FICI > 0.5 to ≤1)); CC50 at 24 h [8]: 13.4 µg/mL (≈ 49.4 µM); TI (CC50/MIC), therapeutic index [9]: 6.7; n (stoichiometry) [10]: 1.0; Kd [10]: 43 µM; ΔG [10]: –6.0 kcal/mol; ΔH [10]: 0.8 kcal/mol
N#Cc1cnn(-c2ccc(C(F)(F)F)cc2[N+](=O)[O-])c1N [Ligand I] | 0.031 to 4 (≈ 0.104 to 13.5 µM) | > 64 | > 64 | > 64 | > 64 | 64 (≈ 215 µM) | 32 (≈ 108 µM) | > 64 | > 64 | > 64 | > 64 | 2 | 1 | 1 | 2 | 1 | 1 | 0.625 | 0.125 | 0.5 | Interaction [7, 11]: Neutral (no interaction or neutral (FICI > 1 to ≤4)); Interaction [7, 12]: Neutral (no interaction or neutral (FICI > 1 to ≤4)); Interaction [7, 13]: Additive (additive (FICI > 0.5 to ≤1)); CC50 at 24 h [8]: 119 µg/mL (≈ 401 µM); Cytotoxicity at 8 mg/L [9]: completely safe; n (stoichiometry) [10]: 1.0; Kd [10]: 13 µM; ΔG [10]: –6.7 kcal/mol; ΔH [10]: –1.2 kcal/mol
CSc1cccc(Nc2nc(C(C)(C)C)cs2)c1 [Ligand XI] | 0.031 to 4 (≈ 0.111 to 14.4 µM) | > 64 | > 64 | 64 (≈ 230 µM) | 64 (≈ 230 µM) | 8 (≈ 28.7 µM) | 8 (≈ 28.7 µM) | 32 (≈ 115 µM) | 16 (≈ 57.5 µM) | 64 (≈ 230 µM) | 16 (≈ 57.5 µM) | 0.75 | 0.25 | 0.5 | 2 | 1 | 1 | 0.563 | 0.5 | 0.063 | Interaction [7, 12]: Neutral (no interaction or neutral (FICI > 1 to ≤4)); CC50 at 24 h [8]: 21.8 µg/mL (≈ 78.3 µM); TI (CC50/MIC), therapeutic index [9]: 5.4; Cytotoxicity at 8 mg/L [9]: completely safe; n (stoichiometry) [10]: 1.1; Kd [10]: 49 µM; ΔG [10]: –5.9 kcal/mol; ΔH [10]: –3.1 kcal/mol
